Test results reported in patent US20140057837A1, “METHODS AND COMPOSITIONS FOR THE "BROWNING" OF WHITE FAT” (priority 2012, published 2014).
“Also recorded” adds a separate entry of the source.

Legend:
white adipose tissue = assay: Propranolol experiment: EE-induced gene program in white adipose tissue (qRT-PCR); type: in vivo, C57BL/6 mice; conditions: propranolol in drinking water (0.5 g/L), EE or control housing for 5 weeks
Text: We randomly assigned 40 C57BL/6 mice, 3 weeks of age, to live in enriched or control cages supplied with propranolol in drinking water (0.5 g/L). We collected blood 3 weeks after enrichment and dissected fat pads after 5 weeks enrichment.

[1] = system: retroperitoneal white adipose tissue; assay: Norepinephrine stimulation in vivo: gene expression in white fat; parameters: species or system mice; conditions: NE 0.3 mg/kg s.c., 4 hours after injection, 30° C.
Protocol: Norepinephrine Stimulation In Vivo.
To measure the norepinephrine-induced gene expression changes in white fat, the mice after 6 weeks enrichment or control housing were anesthetized with pentobarbital (90 mg/kg, i.p.) and injected with 0.3 mg/kg norepinephrine (s.c.). The mice were maintained at 30° C. throughout the experiment. Fat pads were dissected 4 h after norepinephrine injection. qRT-PCR was used to profile gene expression in white fat.

SMILES | EE-associated molecular features of white adipose tissue (white adipose tissue) | Lep expression in EE retroperitoneal white adipose tissue ([1]; EE mice) | Ucp1 expression in EE retroperitoneal white adipose tissue ([1]; EE mice) | gene expression changes in control retroperitoneal white adipose tissue ([1]; control-housed mice)
CC(C)NCC(O)COc1cccc2ccccc12 (stereo not shown) [Propranolol, propranolol] | efficiently blocked the molecular features associated with EE; also recorded: blocked enrichment-associated molecular features of white adipose tissue |  |  | 
NC[C@H](O)c1ccc(O)c(O)c1 [NE, norepinephrine] |  | further reduced significantly | highly increased | failed to induce significant changes
